For 31 compounds, pIC50 and melting point results are on record in patent US8710062B2, “Piperazinedione compounds” (Taipei Medical University, priority 2011, dated 2014).

Structures can show the parent of a compound that is named as a salt.

The subject of the first data set is 60 Human Cancer Cell Lines (NCI-60). The following applies: data obtained from the NCI/DTP database (asterisk); cited from earlier work.
A word on the pIC50: it is −log10 of the IC50, conventionally taken in molar units. `Nc1nc2[nH]cc(CCc3ccc(C(=O)N[C@@H](CCC(=O)O)C(=O)O)cc3)c2c(=O)[nH]1` [Alimta]: the negative-log IC50 (pIC50) was 4.97.
For the compound `O=c1[nH]cc(F)c(=O)[nH]1` [Compound 5-FU, 5-FU], the pIC50 is given as 4.76.
In the case of `Nc1ccn([C@@H]2O[C@H](CO)[C@@H](O)C2(F)F)c(=O)n1` [Gemcitabine], the negative-log IC50 (pIC50) was 6.82.
Consider `COc1cc2ncnc(Nc3ccc(F)c(Cl)c3)c2cc1OCCCN1CCOCC1` [Irressa], for which the negative-log IC50 (pIC50) is recorded as 5.49.
Turning to `CN(Cc1cnc2nc(N)nc(N)c2n1)c1ccc(C(=O)N[C@@H](CCC(=O)O)C(=O)O)cc1` [MTX], the negative logarithm of the IC50 (pIC50) is 6.95.
With `CNC(=O)c1cc(Oc2ccc(NC(=O)Nc3ccc(Cl)c(C(F)(F)F)c3)cc2)ccn1` [Mexavar], the negative logarithm of the IC50 (pIC50) is given as 5.73.
On to `CCN(CC)CCNC(=O)c1c(C)[nH]c(/C=C2\C(=O)Nc3ccc(F)cc32)c1C` [Sutent], for which the pIC50 was 5.71.
Consider `C#Cc1cccc(Nc2ncnc3cc(OCCOC)c(OCCOC)cc23)c1` [Tarceva], for which the negative-log IC50 (pIC50) is recorded as 5.26.
For the compound `CC(=O)O[C@@]12CO[C@@H]1C[C@H](O)[C@@]1(C)C(=O)[C@H](O)C3=C(C)[C@@H](OC(=O)[C@H](O)[C@@H](NC(=O)OC(C)(C)C)c4ccccc4)C[C@@](O)([C@@H](OC(=O)c4ccccc4)[C@H]21)C3(C)C` [docetxel], the negative-log IC50 (pIC50) is reported as 7.66.
As to `O=C1[O][Pt]2([NH][C@@H]3CCCC[C@H]3[NH]2)[O]C1=O` [eloxatin], the negative logarithm of the IC50 (pIC50) is 5.65.
For `CCc1c2c(nc3ccc(OC(=O)N4CCC(N5CCCCC5)CC4)cc13)-c1cc3c(c(=O)n1C2)COC(=O)[C@]3(O)CC` [irinotecan], the negative logarithm of the IC50 (pIC50) is recorded as 4.85.
For `CC(=O)O[C@H]1C(=O)[C@@]2(C)[C@H]([C@H](OC(=O)c3ccccc3)[C@]3(O)C[C@H](OC(=O)[C@H](O)[C@@H](NC(=O)c4ccccc4)c4ccccc4)C(C)=C1C3(C)C)[C@]1(OC(C)=O)CO[C@@H]1C[C@@H]2O` [taxol], the negative-log IC50 (pIC50) is recorded as 7.84.

Test system in a further data set: not given
Details: not given
The term melting point denotes the temperature, or range, at which the solid turns liquid. For `O=c1[nH]/c(=C\c2ccc(OCc3cccnc3)cn2)c(=O)[nH]/c1=C\c1ccccc1` (as salt: sulfonic acid salt) [Compound 3, 3-benzylidene-6-((5-(pyridin-3-ylmethoxy)pyridin-2-yl)methylene)piperazine-2,5-dione methanesulfonic acid salt], the melting point is 228 to 230 °C.
Compound `O=c1[nH]/c(=C\c2ccc(OCc3ccccn3)cn2)c(=O)[nH]/c1=C\c1ccccc1` (as salt: sulfonic acid salt) [Compound 4, 3-benzylidene-6-((5-(pyridin-2-ylmethoxy)pyridin-2-yl)methylene)piperazine-2,5-dione methanesulfonic acid salt] registered a melting point of 266 to 267 °C.
`NC(C(=O)Oc1ccc(/C=c2\[nH]c(=O)/c(=C/c3ccccc3)[nH]c2=O)nc1)c1ccccc1` (stereo not shown) (as salt: trifluoroacetate) [Compound 9, 2-(6-((Z)—((Z)-5-benzylidene-3,6-dioxopiperazin-2-ylidene)methyl)py-ridin-3-yloxy)-2-oxo-1-phenylethanaminium 2,2,2-trifluoroacetate] displayed a melting point of 280 °C.
On the same count and under the same terms, the value for `NC(Cc1ccccc1)C(=O)Oc1ccc(/C=c2\[nH]c(=O)/c(=C/c3ccccc3)[nH]c2=O)nc1` (stereo not shown) (as salt: trifluoroacetate) [Compound 11, 1-(6-((Z)—((Z)-5-benzylidene-3,6-dioxopiperazin-2-ylidene)methyl)-pyridin-3-yloxy)-1-oxo-3-phenylpropan-2-aminium 2,2,2-trifluoroacetate] was 285 to 286 °C; that for `NC(Cc1ccc(O)cc1)C(=O)Oc1ccc(/C=c2\[nH]c(=O)/c(=C/c3ccccc3)[nH]c2=O)nc1` (stereo not shown) (as salt: trifluoroacetate) [Compound 12, 1-(6-((Z)—((Z)-5-benzylidene-3,6-dioxopiperazin-2-ylidene)methyl)pyridin-3-yloxy)-3-(4-hydroxyphenyl)-1-oxopropan-2-aminium 2,2,2-trifluoroacetate] was 312 to 314 °C; that for `CN1CCN(C(=O)Oc2ccc(/C=c3\[nH]c(=O)/c(=C/c4ccccc4)[nH]c3=O)nc2)CC1` [Compound 6, 6-((Z)—((Z)-5-benzylidene-3,6-dioxopiperazin-2-ylidene)methyl)pyridin-3-yl-4-methylpiperazine-1-carboxylate] was 234 to 235 °C.
The same measure, in the same setting: under `CC(C)(C)OC(=O)NC(Cc1ccccc1)C(=O)Oc1ccc(/C=c2\[nH]c(=O)/c(=C/c3ccccc3)[nH]c2=O)nc1` (stereo not shown) [Compound 10, 6-((Z)—((Z)-5-benzylidene-3,6-dioxopiperazin-2-ylidene)methyl)pyridin-3-yl 2-(tert-butoxycarbonylamino)-3-phenylpropanoate] stands 188 °C; under `CC(C)(C)OC(=O)NC(Cc1ccc(OC(C)(C)C)cc1)C(=O)Oc1ccc(/C=c2\[nH]c(=O)/c(=C/c3ccccc3)[nH]c2=O)nc1` (stereo not shown) [Compound 13, 6-((Z)—((Z)-5-benzylidene-3,6-dioxopiperazin-2-ylidene)methyl)pyridin-3-yl-2-(tert-butoxycarbonylamino)-3-(4-tert-butoxyphenyl)propanoate], 210 to 212 °C.
The same measure, in the same setting: under `O=c1[nH]/c(=C\c2ccc(OCc3ccncc3)cn2)c(=O)n(Cc2ccncc2)/c1=C\c1ccccc1` [Compound 14, (3Z,6Z)-6-benzylidene-3-((5-(pyridin-4-ylmethoxy)pyridin-2-yl)meth-ylene)-1-(pyridin-4-ylmethyl)piperazine-2,5-dione] stands 284 °C (dec.); under `CN(C)CCCOc1cccc(/C=c2\[nH]c(=O)/c(=C/c3ccc(OCc4ccccc4)cn3)[nH]c2=O)c1` [Compound 17, 3-((5-(benzyloxy)pyridin-2-yl)methylene)-6-(3-(3-(dimethylamino)propoxy)benzylidene)piperazine-2,5-dione], 286 °C (dec.).
On to `O=c1[nH]/c(=C\c2ccc(OCCO)cn2)c(=O)n(CCO)/c1=C\c1ccccc1` [Compound 18, 6-benzylidene-3-((5-(2-hydroxyethoxy)pyridin-2-yl)methylene)-1-(2-hydroxyethyl)piperazine-2,5-dione], for which the melting point was 326 °C (dec.).
Same read-out and setting: the value for `CC(=O)N1CC(=O)N/C(=C\c2ccc3ccccc3n2)C1=O` [Compound 19, 1-acetyl-3-(quinolin-2-ylmethylene)piperazine-2,5-dione] was 262 to 263 °C; that for `O=c1[nH]/c(=C\c2ccc3ccccc3n2)c(=O)[nH]/c1=C\c1ccc2ccccc2n1` [Compound 20, 3,6-bis(quinolin-2-ylmethylene)piperazine-2,5-dione] was 374 to 375 °C; that for `O=c1[nH]/c(=C\c2ccc3ccccc3n2)c(=O)[nH]/c1=C\c1cccnc1` [Compound 21, 3-(pyridin-3-ylmethylene)-6-(quinolin-2-ylmethylene)piperazine-2,5-dione] was 305 to 306 °C.
In turn, `O=c1[nH]/c(=C\c2ccc3ccccc3n2)c(=O)[nH]/c1=C\c1ccc(F)cc1` [Compound 22, 3-(4-fluorobenzylidene)-6-(quinolin-2-ylmethylene)piperazine-2,5-dione] showed a melting point of 319 to 320 °C.
Compound `O=c1[nH]/c(=C\c2ccc3ccccc3n2)c(=O)[nH]/c1=C\c1ccc(Cl)cc1` [Compound 23, 3-(4-chlorobenzylidene)-6-(quinolin-2-ylmethylene)piperazine-2,5-dione] yielded a melting point of 348 to 349 °C.
Still for that read-out and setting: the value for `O=c1[nH]/c(=C\c2cccs2)c(=O)[nH]/c1=C\c1ccc2ccccc2n1` [Compound 24, 3-(quinolin-2-ylmethylene)-6-(thiophen-2-ylmethylene)piperazine-2,5-dione] was 288 to 289 °C.
The same measure, in the same setting: the value for `O=c1[nH]/c(=C\c2ccnc3ccccc23)c(=O)[nH]/c1=C\c1ccnc2ccccc12` [Compound 26, 3,6-bis(quinolin-4-ylmethylene)piperazine-2,5-dione] was 374 to 375 °C; that for `CC(=O)N1CC(=O)N/C(=C\c2cnc3ccccc3c2)C1=O` [Compound 27, 1-acetyl-3-(quinolin-3-ylmethylene)piperazine-2,5-dione] was 261 to 262 °C.
